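Assay format: 96-well plates, 48-hour exposure. GI50 = concentration required for 50% inhibition of growth. The concentration for full growth arrest is given as TGI.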
Tests used:
Experiment in all cases: NCI tumour cell line growth inhibition, 48 h
[1] = tested on: 786-0 renal
[2] = tested on: ACHN renal
[3] = tested on: CCRF-CEM leukemia
[4] = tested on: HCT-116 colon
[5] = tested on: HCT-15 colon
[6] = tested on: HL-60(TB) leukemia
[7] = tested on: HOP-62 NSCLC
[8] = tested on: K-562 leukemia
[9] = tested on: OVCAR-4 ovarian
[10] = tested on: OVCAR-5 ovarian
[11] = tested on: RPMI-8226 leukemia
[12] = tested on: RXF 393 renal
[13] = tested on: SK-OV-3 ovarian
[14] = tested on: SNB-19 CNS

Row | Structure (SMILES) | TGI [1] [µM] | TGI [2] [µM] | TGI [3] [µM] | TGI [4] [µM] | TGI [5] [µM] | TGI [6] [µM] | TGI [7] [µM] | TGI [8] [µM] | TGI [9] [µM] | TGI [10] [µM] | TGI [11] [µM] | TGI [12] [µM] | TGI [13] [µM] | TGI [14] [µM] | GI50 [2] [µM] | GI50 [3] [µM] | GI50 [5] [µM] | GI50 [6] [µM] | GI50 [7] [µM] | GI50 [8] [µM]
1 | CC(=O)c1sc2c(c1OC(=O)c1ccccc1)c(=O)n(-c1ccccc1)c(=S)n2-c1ccccc1 | 17.9 | 12.6 | 5.83 | 34.2 | 62.9 | > 68.1 | 45.9 | > 58.3 | 57.9 | 17.1 | 7.32 | 7.21 | > 49.9 | > 47.8 |  |  |  |  |  | 
2 | COC(=O)CCc1cc(OC)c2oc(-c3ccc(OC)c(OC)c3)c(CO)c2c1 | > 100 | > 100 | > 100 | > 100 | > 100 | > 100 | > 100 | > 100 | > 100 | > 100 | > 100 |  | > 100 | > 100 |  |  |  |  |  | 
3 | O=C(O)CCC1(CCC(=O)O)CCCCCCCCC(CCC(=O)O)(CCC(=O)O)C(=O)C1=O | > 100 | > 100 |  | > 100 | > 100 | > 100 | > 100 | > 100 | > 100 | > 100 | > 100 |  | > 100 | > 100 |  |  |  |  |  | 
4 | CCCCCCc1cc2cc(-c3cn4ccccc4n3)c(=O)oc2cc1O | 4.76 | 38.1 | > 100 | 16.9 | 20.9 | > 100 | 24.4 | > 40.3 | 17.5 | 51.7 | 18.4 | 15.1 | 26.5 | 26 |  |  |  |  |  | 
5 | Cc1cc(N(CCC#N)CCC#N)ccc1/C=C(\N=[N+]=[N-])C(=O)NC(=O)COc1ccccc1 | > 100 | > 100 | > 100 | > 100 | > 100 | > 100 | > 100 | > 100 | > 100 | > 100 | > 100 | 97.5 | > 100 | > 100 |  |  |  |  |  | 
6 | O=S1(=O)OCCOS(=O)(=O)C1(Br)Br | > 100 |  | > 100 | > 100 |  | > 100 | > 100 | > 100 | > 100 |  | > 100 |  | > 100 | > 100 |  |  |  |  |  | 
7 | CCOC(=O)C(C(=O)OCC)S(C)(=O)=O | > 100 | > 100 | > 100 | > 100 |  | > 100 | > 100 | > 100 | > 100 | > 100 | > 100 | > 100 | > 100 | > 100 |  |  |  |  |  | 
8 | COc1cc(C2SCC(=O)N2c2ccc(Cl)cc2)cc(OC)c1OC (stereo unspecified) | 99.6 | > 100 | 30.6 | > 100 | > 100 | 29.2 | > 100 | > 52.9 | > 100 |  | > 55.3 | 71.2 | > 100 | > 100 |  |  |  |  |  | 
9 | Cc1nnc(N)nc1C/C=C/C(C)Sc1ccc(Cl)cc1 (stereo unspecified) | 33.1 | 29 | 26.4 | 33.8 | > 54.1 | 10.1 | 25.4 | > 100 | 48 | 36.9 | > 70 | 22.2 | 21.9 | > 51 |  |  |  |  |  | 
10 | O=C(O)c1ccc(Nc2nc3ccc(C(F)(F)F)cc3nc2-c2ccccc2)cc1 | > 100 | > 100 | > 100 | > 100 | 57.3 | 66.3 | > 100 | > 100 |  | > 100 | > 100 | > 100 |  | > 100 |  |  |  |  |  | 
11 | N#CCCN(c1ccc(C=Nc2ccc(C(=O)O)cc2)cc1)S(=O)(=O)c1ccccc1 | > 100 | > 100 | > 100 | > 100 | > 100 | > 100 | > 100 | > 100 | > 100 | > 100 | > 100 | > 100 | > 100 | > 100 |  |  |  |  |  | 
12 | CCOC(=O)c1c(Br)c(-c2ccc([N+](=O)[O-])cc2)c(Br)n1C | > 10 | > 10 | > 10 | > 10 | > 10 | > 10 | > 10 | > 10 | > 10 | > 10 | > 10 |  | > 10 | > 10 |  |  |  |  |  | 
13 | CC(/C=C1\CCC(CN(C)C)C1=O)c1cccc(Br)c1 (stereo unspecified) | 12.3 | 18 | 11.4 | 31 | 34 | 10.8 | 42.2 | 9.43 | 32.3 | 43.8 | 6.08 | 26.5 | > 100 | 61.2 |  |  |  |  |  | 
14 | COc1cc(Cn2c3ccccc3c3cc(C)cc(OC)c32)cc2c1[nH]c1ccccc12 | > 25 | > 25 | > 25 | > 25 | > 25 | > 25 | 17.4 | > 25 |  | > 25 | > 25 |  | > 25 | > 25 | 12.2 | 12 | 16.8 | 12.3 | 6.63 | 9.7
15 | Nc1nc(N)c2c(-c3ccccc3)ccnc2n1 | > 100 | > 100 | > 100 | > 100 |  | > 100 | > 100 | > 100 | > 100 | > 100 | > 100 | > 100 | > 100 | > 100 |  |  |  |  |  | 
16 | COC(=O)N1C2C(C[C@@]1(C)C(=O)OC)c1ccccc1N2S(=O)(=O)c1ccccc1 (stereo partly specified) | > 100 | > 100 | > 100 | > 100 |  | > 100 |  | > 100 | > 100 | > 100 | > 100 | > 100 | > 100 | > 100 |  |  |  |  |  | 
17 | CCCCCCC(O)C(=O)OC1C2C(CC1(C)C)C(O)C13OC1C(O)C1(CO1)[C@@]23C (stereo partly specified) | 86.8 |  | > 100 | > 100 | > 100 | > 100 | > 100 | > 100 | > 100 | > 100 | > 100 | 59.4 | > 100 | > 100 |  |  |  |  |  | 
18 | COc1ccc2nc3c([N+](=O)[O-])ccc4c3c(c2c1)N=CN4CCN(C)C | 21.5 | 16.6 | 9.76 | 13.6 | 16.6 | 0.616 | 15.3 | 2.94 | 34.9 | 23.3 | 8.27 |  | 28.9 | 28 |  |  |  |  |  | 
19 | O=C1/C(=C/c2cccc([N+](=O)[O-])c2)Cc2ccccc21 | > 100 | > 100 | > 100 | > 100 | > 100 | > 100 | > 100 | > 100 | > 100 | > 100 | > 100 |  | > 100 | > 100 |  |  |  |  |  | 
20 | CC(=O)Oc1ccc(C)c2c1[C@H]1CC[C@]3(C)[C@@H](OC(C)=O)CC[C@H]3[C@@H]1CC2 | 39.4 | 29.8 | 55.2 | 31.2 | 35.2 | 51.5 | 32 | 68.3 |  | > 100 | 49.4 | 35.4 |  | 32.6 |  |  |  |  |  | 
21 | CCN(CC)CCC(=O)Nc1ccc2sc3ccccc3c(=O)c2n1 | 35.1 | 38.1 | 75.6 | 29.4 | 62.3 | 30.9 | 37.8 | 41.4 | > 100 | 42.5 | 43.5 |  | 36.7 | 53.1 |  |  |  |  |  | 
22 | N#C/C(=C\c1ccccc1F)C(=O)c1ccccc1 | > 100 | > 100 | > 100 | > 100 | > 100 | > 100 | > 100 | > 100 | > 100 | > 100 | > 100 |  | > 100 | > 100 |  |  |  |  |  | 
23 | CC(Cn1c(=O)oc2ccccc21)N(C)C (stereo unspecified) | > 100 | > 100 | > 100 | > 100 | > 100 | > 100 | > 100 | > 100 |  | > 100 | > 100 | > 100 | > 100 | > 100 |  |  |  |  |  | 
24 | CC(C)OP(=O)(OC(C)C)/C(=N/Nc1ccc([N+](=O)[O-])cc1)NNC(=O)c1ccccc1 | > 100 | > 100 | 55.4 | > 100 | > 100 | 68.9 | > 100 | > 100 | 99.2 | > 100 | > 100 |  |  | > 100 |  |  |  |  |  | 
25 | CN(CCO)c1nc(=O)c2c(n1C1OC(CO)C(O)C(O)C1O)CCCC2 (stereo unspecified) | > 100 | > 100 | > 100 | > 100 | > 100 | > 100 | > 100 | > 100 |  | > 100 | > 100 | > 100 | > 100 | > 100 |  |  |  |  |  | 
26 | CCCCCCCC(=O)OC(COC(=O)Cc1ccccc1)COC(=O)C(C)(C)C (stereo unspecified) | > 100 | > 100 | > 100 | > 100 | > 100 | > 100 | > 100 | > 100 | > 100 | > 100 | > 100 |  | > 100 | > 100 |  |  |  |  |  | 

Reference: PubChem BioAssay (NCI)
